Molecules are shown by their SMILES.

One compound from PMC11278568, “Implementation of Spore Display in Paenibacillus polymyxa with Different Hydrolytic Enzymes” (Microorganisms, 2024) can be followed below.

In one assay the target is T1, Lip3 (Paenibacillus polymyxa, UniProt A0ABX2ZB39).
T1 construct: gene A7312_04500; fused via GGGGGSGGGGG linker to P. polymyxa CotE spore-coat anchor; gene amplified from DSM 365 genome (CP141264); printed NF024107.3 is a family model
T1 sequence (A0ABX2ZB39 1-335): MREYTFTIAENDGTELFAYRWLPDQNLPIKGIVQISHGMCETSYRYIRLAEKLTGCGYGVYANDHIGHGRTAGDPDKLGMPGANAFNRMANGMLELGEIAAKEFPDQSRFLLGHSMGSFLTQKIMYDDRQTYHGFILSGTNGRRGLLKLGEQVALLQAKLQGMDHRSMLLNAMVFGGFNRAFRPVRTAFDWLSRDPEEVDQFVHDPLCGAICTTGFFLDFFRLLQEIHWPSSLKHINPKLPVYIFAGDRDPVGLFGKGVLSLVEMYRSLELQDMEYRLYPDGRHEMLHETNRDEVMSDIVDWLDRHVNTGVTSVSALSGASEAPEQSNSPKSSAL
Kind of assay: p-nitrophenol release, […] nm, […] h. Format: cell-based. As to conditions: enzyme displayed on spores (immobilised), OD600 1; 1 mM substrate; 50 mM Tris-HCl pH 7.5; 4-70 °C.

A short description of assay [1]: p-nitrophenol release, […] nm, […] h. Format: cell-based, Paenibacillus polymyxa. As to conditions: enzyme displayed on spores (immobilised), OD600 1; 1 mM substrate; 50 mM Tris-HCl pH 7.5; 4-70 °C; side activity of the synthase.

For the compound `CCCCCCCC(=O)Oc1ccc([N+](=O)[O-])cc1` [C8, 4-Nitrophenyl-octanoate], the “p-nitrophenol release, 410 nm, 1 h” value on Lip3 is listed as “The displayed Lip3 showed higher hydrolysis activity with rising temperature”; in assay [1], “this enzyme showed hydrolytic activity for p-nitrophenyl caprylate (pNPC, C8)”.
